Reference: patent publication US6927231B2, “Use of creatine for the amelioration of oxidative stress” (2458781 Canada Inc., priority 2001, dated 2005)
Where “and” joins values, the source holds several entries; their conditions need not be identical. Equal values may be shown once.

What was measured:
[1] = Acid-soluble thiol concentration in the plasma during N-acetylcysteine ingestion; type: in vivo, human; settings: healthy subject; NAC approximately 0.1-0.4 g per week, periods 1, 2, 5 and 6
Procedure: (§1) During the periods 1,2,5 and 6, the subject ingested small doses of N-acetylcysteine (NAC) (approximately 0.1-0.4 g per week) to adjust the acid-soluble thiol concentration in the plasma to an average value of about 15 μM, which corresponds approximately to the mean of healthy young subjects (see FIG. 1). In period 2, the subject ingested 3-4 times per week creatine at a dosis of approximately 3-4 g per week. In the period 4 and 6, the subject ingested creatine 6-7 times per week at a mean dose of approximately 6-8 g per week. Creatine was discontinued twice for one week each after the cystine level fell to a value of 40 and 41 μM, respectively. […] The P values illustrate the statistical significance for the differences between different treatment periods.

[2] = Plasma cystine concentration of a subject during creatine treatment periods; type: in vivo, human; settings: healthy subject
Description: FIG. 3 illustrates the results of a study that is described in more detail in example 1. The ordinate (c) describes the plasma cystine concentration in μMol. The columns 1-6 describe the mean plasma cystine concentrations during 6 successive treatment periods of a subject as described in example 1.
as §1

SMILES: CC(=O)N[C@@H](CS)C(=O)O [N-acetylcysteine]
- acid-soluble thiol concentration in the plasma, average value [1]: about 15 μM

SMILES: CN(CC(=O)O)C(=N)N [creatine]
- cystine level at which creatine was discontinued ([2]; creatine discontinued twice for one week each after the level fell to this value): 40 µM and 41 µM
- plasma cystine level ([2]; relatively small oral doses of creatine (approx. 3-8 g per week) during a total period of about 2.5 years, level corresponds to 20-35 year-old healthy subjects): approximately 50 μ
